Results published in US20180370912A1, “COMPOUNDS AND METHODS FOR TREATING DISEASES MEDIATED BY PROTEIN DISULFIDE ISOMERASE” (Beth Israel Deaconess Medical Center, Inc., priority 2017, published 2018).

Columns and labels:
tumor growth = conditions: murine model ovarian cancer, Xu et al. 2012; cited from earlier work
ERp5 = target: T1, ERp5 (Homo sapiens, UniProt Q15084); assay: Di-eosin-GSSG disulfide reductase assay; assay type: biochemical
T1 construct: recombinant His-tagged full-length ERp5, ERp72 and PDI domain fragments; His; made in house; host or cells: Escherichia coli Origami B (DE3), pET-15b
T1 sequence (Q15084 20-440): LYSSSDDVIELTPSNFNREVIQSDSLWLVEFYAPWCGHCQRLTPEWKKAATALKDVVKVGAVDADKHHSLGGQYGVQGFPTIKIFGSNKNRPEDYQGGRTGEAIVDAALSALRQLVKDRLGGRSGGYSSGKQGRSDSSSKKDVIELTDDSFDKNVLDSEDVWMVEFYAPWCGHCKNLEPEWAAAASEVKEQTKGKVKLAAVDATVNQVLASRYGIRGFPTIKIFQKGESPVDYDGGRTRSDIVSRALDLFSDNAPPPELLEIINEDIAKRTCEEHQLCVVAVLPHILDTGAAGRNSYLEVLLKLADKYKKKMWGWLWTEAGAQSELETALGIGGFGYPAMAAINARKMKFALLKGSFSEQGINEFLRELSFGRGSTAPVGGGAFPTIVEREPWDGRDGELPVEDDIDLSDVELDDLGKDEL
Experimental: (§1) The probe di-eosin glutathione disulfide, di-eosin-GSSG, was prepared as previously described in Raturi, A., Vacratsis, P. O., Seslija, D., Lee, L. & Mutus, B., Biochem J 391, 351-357 (2005). Reductase activity of purified thiol isomerases and PDI domains was monitored in a 96-well fluorescence plate format. PDI, AGHA-PDI, ERpS, ERp57, ERp72 and PDI domains were assayed at 50 nM in the presence or absence of the indicated small molecules, peptides or cathepsin G. The assay included 100 mM potassium phosphate (pH 7.4) containing 2 mM EDTA, 5 μM DTT and 150 nM of the di-eosin GSSG probe. The increase in fluorescence was determined for 20 minutes by excitation at 520 nm and emission at 550 nm in a Synergy Biotek 4. The reduction of 150 nM di-eosin-GSSG by 5 μM DTT in the presence or absence of mentioned small molecules, peptides or proteins served as a negative control.

ERp72 = target: T2, ERp72 (Homo sapiens, UniProt P13667); assay: Di-eosin-GSSG disulfide reductase assay; assay type: biochemical
T2 construct: recombinant His-tagged full-length ERp5, ERp72 and PDI domain fragments; His; made in house; host or cells: Escherichia coli Origami B (DE3), pET-15b
T2 sequence (P13667 21-645): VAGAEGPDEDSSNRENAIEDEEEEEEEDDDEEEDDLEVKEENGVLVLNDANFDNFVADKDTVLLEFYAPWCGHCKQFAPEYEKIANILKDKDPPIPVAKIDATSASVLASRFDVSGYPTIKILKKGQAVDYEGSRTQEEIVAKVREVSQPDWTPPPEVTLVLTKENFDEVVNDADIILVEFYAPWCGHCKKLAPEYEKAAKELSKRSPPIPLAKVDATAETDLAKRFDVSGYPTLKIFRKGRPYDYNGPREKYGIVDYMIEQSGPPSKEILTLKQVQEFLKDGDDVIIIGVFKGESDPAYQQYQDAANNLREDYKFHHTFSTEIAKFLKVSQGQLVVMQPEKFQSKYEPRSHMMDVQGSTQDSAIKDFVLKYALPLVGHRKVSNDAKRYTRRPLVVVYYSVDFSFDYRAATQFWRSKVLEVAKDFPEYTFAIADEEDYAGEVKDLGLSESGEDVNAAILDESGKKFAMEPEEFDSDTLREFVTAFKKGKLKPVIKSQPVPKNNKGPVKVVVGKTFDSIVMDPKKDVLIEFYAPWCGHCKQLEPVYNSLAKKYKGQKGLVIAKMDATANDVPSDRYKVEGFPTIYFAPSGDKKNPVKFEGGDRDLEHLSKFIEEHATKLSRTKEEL
Experimental: as §1

ERp57 = target: T3, ERp57 (Homo sapiens, UniProt P30101); assay: Di-eosin-GSSG disulfide reductase assay; assay type: biochemical
T3 construct: FLAG; made in house; host or cells: Escherichia coli Origami B (DE3), pET-15b
T3 sequence (P30101 25-505): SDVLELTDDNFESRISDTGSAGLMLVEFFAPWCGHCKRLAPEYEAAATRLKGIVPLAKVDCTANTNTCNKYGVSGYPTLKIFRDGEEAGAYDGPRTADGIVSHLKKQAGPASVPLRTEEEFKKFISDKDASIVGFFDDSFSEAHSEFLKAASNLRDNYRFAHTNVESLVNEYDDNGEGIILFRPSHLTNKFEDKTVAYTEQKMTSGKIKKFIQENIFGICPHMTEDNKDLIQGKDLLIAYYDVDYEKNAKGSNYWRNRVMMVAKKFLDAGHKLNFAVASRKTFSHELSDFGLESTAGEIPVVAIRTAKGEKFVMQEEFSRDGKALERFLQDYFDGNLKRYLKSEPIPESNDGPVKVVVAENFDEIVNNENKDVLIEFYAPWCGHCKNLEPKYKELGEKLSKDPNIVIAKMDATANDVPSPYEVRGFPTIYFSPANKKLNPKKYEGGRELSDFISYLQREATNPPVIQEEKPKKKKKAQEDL
Experimental: as §1

[1] = target: T4, PDI fragments abb′ and b′xa′ (Homo sapiens, UniProt P07237); assay: Di-eosin-GSSG reductase assay of PDI fragments; assay type: biochemical; conditions: 30 μM, FIG. 5a
T4 construct: abb′ (residues 1-331), or b′xa′ (residues 219-462); His; made in house; host or cells: Escherichia coli Origami B (DE3), pET-15b
T4 sequence (P07237 18-348): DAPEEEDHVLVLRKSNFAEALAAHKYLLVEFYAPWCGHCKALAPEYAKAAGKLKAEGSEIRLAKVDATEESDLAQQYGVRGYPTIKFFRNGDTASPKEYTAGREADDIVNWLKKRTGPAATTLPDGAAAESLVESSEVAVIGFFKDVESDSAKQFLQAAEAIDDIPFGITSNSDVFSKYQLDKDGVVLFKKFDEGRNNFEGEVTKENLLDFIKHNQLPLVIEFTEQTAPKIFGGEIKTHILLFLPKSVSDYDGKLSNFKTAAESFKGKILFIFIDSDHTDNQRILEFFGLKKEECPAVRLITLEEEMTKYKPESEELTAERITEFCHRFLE
Experimental: as §1

[2] = target: T5, PDI fragments abb′ and b′xa′ (Homo sapiens, UniProt P07237); assay: Di-eosin-GSSG reductase assay of PDI fragments; assay type: biochemical; conditions: 30 μM, FIG. 5a; remark: listed apart in the source
T5 construct: abb′ (residues 1-331), or b′xa′ (residues 219-462); His; made in house; host or cells: Escherichia coli Origami B (DE3), pET-15b
Experimental: as §1
T5 sequence (P07237 236-479): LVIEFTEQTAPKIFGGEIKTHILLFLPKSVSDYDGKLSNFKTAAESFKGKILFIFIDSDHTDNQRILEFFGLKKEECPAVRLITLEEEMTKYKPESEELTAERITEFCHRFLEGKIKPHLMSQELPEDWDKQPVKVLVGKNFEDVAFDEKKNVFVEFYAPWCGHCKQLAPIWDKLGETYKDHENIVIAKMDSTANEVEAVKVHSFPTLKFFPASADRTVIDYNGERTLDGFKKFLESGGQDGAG

In the case of `C#CC(=O)N(c1ccc(OC)cc1OC)C(C(=O)NCC(=O)OCC)c1cccs1` (stereo not drawn) [PACMA-31, N-(2,4-Dimethoxyphenyl)-N-(1-oxo-2-propyn-1-yl)-2-(2-thienyl)glycyl-glycine ethyl ester, reference compound], the tumor growth (tumor growth) is listed as “impairs tumor growth”.
With `CCOC(=O)c1c(CNCCN(CC)CC)n(-c2ccccc2)c2cc(Br)c(O)cc12` [bepristat 2a] the “cleavage of di-eosin-GSSG by ERp5 (catalytic activity)” value (ERp5) was “did not augment activity”, the “cleavage of di-eosin-GSSG by ERp72 (catalytic activity)” value (ERp72) was “did not augment activity” and the “cleavage of di-eosin-GSSG by ERp57 (catalytic activity)” value (ERp57) was “did not augment activity”. For the same compound, the “di-eosin-GSSG cleavage by abb′ fragment” value [1] was “failed to augment activity” and the “di-eosin-GSSG cleavage by b′xa′ fragment” value [2] was “significantly augmented the catalytic activity”.
